# Results published in patent US20160304557A1, “Method for preventing or treating heart diseases by using a composition containing an isolated peptide” (Tunghai University, priority 2014, published 2016).
# Assays:
# Bcl-2 protein = experiment: Western blot of Bcl-2 in heart tissue of high-fat diet mice; format: in vivo, C57BL/6 mice; settings: groups 3 to 5 (5, 10, 25 mg/kg/day intraperitoneally) in comparison of group 2 (high-fat diet, saline)
# Method: (§1) The male C57BL/6 mice at the age of 6 weeks were divided into 5 groups for 8 mice in each group. […]
# (§2) Protein concentration of the extract was determined by Lowry's protein assay method. […]
# (§3) The protein extraction of the mice heart tissues from the each group in example 2 were processed by the western blot method in example 3 to observe the expressions of related apoptosis regulatory proteins in the mice heart tissues from the each group. The results were shown at FIGS. 2 and 3, wherein the tubulin was used for an internal control in FIG. 2 and the expression levels of related apoptosis regulatory proteins were calculated basing on the expression level of tubulin in each figure of FIG. 3.
# cytochrome C = experiment: Western blot of cytochrome C in heart tissue of high-fat diet mice; format: in vivo, C57BL/6 mice; settings: groups 3 to 5 (5, 10, 25 mg/kg/day intraperitoneally) in comparison of group 2
# Method: as §1, §2, §3
# caspase-3 = experiment: Western blot of activated caspase-3 in heart tissue of high-fat diet mice; format: in vivo, C57BL/6 mice; settings: groups 3 to 5 (5, 10, 25 mg/kg/day intraperitoneally) in comparison of group 2
# Method: as §1, §2, §3
# [1] = tested on: nuclear factor of activated T-cells C3 (NFTA-C3); experiment: Western blot of NFTA-C3 in heart tissue of high-fat diet mice; format: in vivo, C57BL/6 mice; settings: groups 3 to 5 (5, 10, 25 mg/kg/day intraperitoneally) in comparison of group 2
# Method: as §1, §2
# (§4) The protein extraction of the mice heart tissues from the each group in example 2 were processed by the western blot method in example 3 to observe the expressions of nuclear factor of activated T-cells C3 (NFTA-C3) and calcineurin in the mice heart tissues from the each group. The results were shown at FIGS. 4 and 5, wherein the tubulin was used for an internal control in FIG. 4 and the expression levels of NFTA-C3 and calcineurin were calculated basing on the expression level of tubulin in each figure of FIG. 5.
# calcineurin = experiment: Western blot of calcineurin in heart tissue of high-fat diet mice; format: in vivo, C57BL/6 mice; settings: groups 3 to 5 (5, 10, 25 mg/kg/day intraperitoneally) in comparison of group 2
# Method: as §1, §2, §4
# [2] = tested on: STAT-3, IL-6, MEK-5 and ERK-5; experiment: Western blot of related signal transduction proteins of heart hypertrophy in heart tissue of high-fat diet mice; format: in vivo, C57BL/6 mice; settings: STAT-3, IL-6, MEK-5, ERK-5, groups 3 to 5 (5, 10, 25 mg/kg/day intraperitoneally) versus group 2
# Method: as §1, §2
# The protein extraction of the mice heart tissues from the each group in example 2 were processed by the western blot method in example 3 to observe the expressions of the related signal transduction proteins of heart hypertrophy including: STAT-3, IL-6, MEK-5 and ERK-5. The results were shown at FIGS. 6 and 7, wherein the tubulin was used for an internal control in FIG. 6 and the expression levels of the related signal transduction proteins of heart hypertrophy in the mice heart tissues from each group was calculated basing on the expression level of tubulin in FIG. 7.
# p38α protein = experiment: Western blot of p38α protein in heart tissue of high-fat diet mice; format: in vivo, C57BL/6 mice; settings: groups 3 to 5 (5, 10, 25 mg/kg/day intraperitoneally) versus group 2
# Method: (§5) The male C57BL/6 mice at the age of 6 weeks were divided into 5 groups for 8 mice in each group. The each group of mice were feed at 24±2° C. of temperature, humidity of 55±10% and 12/12 light cycle for 8 weeks, wherein the group 1 was control group on a normal diet (PMI Nutrition International, Brentwood, Mo., USA) and injected 0.9% saline intraperitoneally; the group 2 was fed high-fat diet to induce the mice into heart hypertrophy model and injected 0.9% saline intraperitoneally; the group 3 was fed high-fat diet and the peptide of SEQ ID NO.:1 was injected intraperitoneally with the dose of 5 mg/kg/day; the group 4 was fed high-fat diet and the peptide of SEQ ID NO.:1 was injected intraperitoneally with the dose of 10 mg/kg/day; the group 5 was fed high-fat diet and the peptide of SEQ ID NO.:1 was injected intraperitoneally with the dose of 25 mg/kg/day. […]
# as §2
# (§6) The protein extraction of the mice heart tissues from the each group in example 2 were processed by the western blot method in example 3 to observe the expressions of p38α protein and JNK. The results were shown at FIGS. 8 and 9, wherein the tubulin was used for an internal control in FIG. 8 and the expression levels of p38α protein and JNK were calculated basing on the expression level of tubulin in each figure of FIG. 9.
# JNK = experiment: Western blot of JNK in heart tissue of high-fat diet mice; format: in vivo, C57BL/6 mice; settings: groups 3 to 5 (5, 10, 25 mg/kg/day intraperitoneally) versus group 2
# Method: as §5, §2, §6
# [3] = tested on: FGF-2, ERK-1, UPA, MMP-2 and MMP-9; experiment: Western blot of related proteins of cardiac fibrosis pathway in heart tissue of high-fat diet mice; format: in vivo, C57BL/6 mice; settings: MMP-2, MMP-9, groups 3 to 5 (5, 10, 25 mg/kg/day intraperitoneally) versus group 2
# Method: as §1, §2
# The protein extraction of the mice heart tissues from the each group in example 2 were processed by the western blot method in example 3 to observe the expressions of the related proteins of cardiac fibrosis pathway including: FGF-2, ERK-1, UPA, MMP-2 and MMP-9. The results were shown at FIGS. 10 and 11, wherein the tubulin was used for an internal control in FIG. 10 and the expression levels of FGF-2, ERK-1, UPA, MMP-2 and MMP-9 in the mice heart tissues from the each group was calculated basing on the expression level of tubulin in each figures of FIG. 11.
# ANP = experiment: Western blot of ANP in heart tissue of high-fat diet mice; format: in vivo, C57BL/6 mice; settings: groups 3 to 5 (5, 10, 25 mg/kg/day intraperitoneally) in comparison of group 2
# Method: as §1, §2
# (§7) The protein extraction of the mice heart tissues from the each group in example 2 were processed by the western blot method in example 3 to observe the expressions of the indicator of heart hypertrophy and heart failure. The results were shown at FIGS. 12 and 13, wherein the tubulin was used for an internal control in FIG. 12 and the expression levels of the ANP and BNP in the mice heart tissues from the each group was calculated basing on the expression level of tubulin in each figures of FIG. 13.
# BNP = experiment: Western blot of BNP in heart tissue of high-fat diet mice; format: in vivo, C57BL/6 mice; settings: groups 3 to 5 (5, 10, 25 mg/kg/day intraperitoneally) in comparison of group 2
# Method: as §1, §2, §7
# myocardial cells = experiment: H&E stained section of heart tissues of high-fat diet mice; format: in vivo; settings: groups 3 and 4 (15 and 25 mg/kg/day intraperitoneally) in comparison with group 2
# Method: The male C57BL/6 mice at the age of 6 weeks were divided into 5 groups for 8 mice in each group. The each group of mice were feed at 24±2° C. of temperature, humidity of 55±10% and 12/12 light cycle for 8 weeks, wherein the group 1 was control group on a normal diet (PMI Nutrition International, Brentwood, Mo., USA) and injected 0.9% saline intraperitoneally; the group 2 was fed high-fat diet to induce the mice into heart hypertrophy model and injected 0.9% saline intraperitoneally; the group 3 was fed high-fat diet and the peptide of SEQ ID NO.:1 was injected intraperitoneally with the dose of 5 mg/kg/day; the group 4 was fed high-fat diet and the peptide of SEQ ID NO.:1 was injected intraperitoneally with the dose of 10 mg/kg/day; the group 5 was fed high-fat diet and the peptide of SEQ ID NO.:1 was injected intraperitoneally with the dose of 25 mg/kg/day. The injection period of each group of mice was between the third week to the sixth week of feeding period. The high-fat diet contained 60% of energy as fat.
# The feeding method was the same with example 1. Mice were divided into 4 groups for feeding at different conditions. The intraperitoneal injection was performed between the third week and the sixth week of the feeding period. […]
substance,measurement,setting,value
"SEQ ID NO.: 1: isolated peptide which amino acid sequence is SEQ ID NO.: 1; extracted from organisms, separated by hydrolysis or chemical synthesis (VHVV)",expression levels of Bcl-2 in the heart cell,Bcl-2 protein,obviously increased
same,expression levels of cytochrome C in the heart cell,cytochrome C,obviously decreased
same,expression levels of activated caspase-3 in the heart cell,caspase-3,obviously decreased
same,expression levels of NFTA-C3 in the heart cells,[1],obviously decreased
same,expression levels of calcineurin in the heart cells,calcineurin,obviously decreased
same,expression levels of the related signal transduction proteins of heart hypertrophy in the heart tissues,[2],obviously lower
same,expression levels of p38α protein in the heart cells,p38α protein,significantly lower
same,expression levels of JNK in the heart cells,JNK,significantly lower
same,related proteins of cardiac fibrosis pathway in mice heart tissues,[3],obviously lower
same,expression levels of ANP in the heart tissues,ANP,obviously decreased
same,expression levels of BNP in the heart tissues,BNP,obviously decreased
same,arrangement of myocardial cells (H&E stained heart sections),myocardial cells,more orderly and closely
